# Like-named read-outs stand apart in the source and are kept apart here.
# Key:
# Assay in all cases: Agar diffusion assay for antibacterial activity (MIC)
# Format in all cases: cell-based
# [1] = system: Escherichia coli MB 5158 (Norfloxacin-resistant strain); settings: 20 h, read-out: Minimum inhibitory conc.
# Description: (§1) A stock solution of each test compound was prepared at a concentration of 1.28 mg/ml using sterile distilled water. After initial solubilization, two-fold dilutions were prepared and added as one-ml portions to 15 x 100 mm petri plates. A nine-ml portion of trypticase soy agar (TSA) was melted and added to each plate. The test compound and agar were mixed and allowed to cool. […] Controls were prepared using norfloxacin, coumermycin A-1, or novobiocin, and solvent.
# (§2) Each plate was inoculated using a multipoint inoculator with 10⁵ colony-forming units (cfu) of the appropriate bacterium. Each bacterium was stored at -70°C before use and cultured in trypticase soy broth (TSB) at 35°C for 18 hours. The cultures, containing ca. 10⁹ cfu/ml, were diluted as necessary with TSB to provide concentrations of 10⁵ cfu/inoculation spot. The test plates were then incubated at 35°C for 20 hours. Minimum inhibitory concentrations (MIC) for each compound was the lowest concentration that allowed no growth, a barely visible haze, of five or fewer discrete colonies.
# (§3) Table VI includes biological test results for representative compounds of this invention using the agar diffusion assay described above. The particular bacterial strains used are representative of organisms for which the compounds are useful as antibacterial agents.
# [2] = system: Staphylococcus aureus MB 2865; settings: read-out: Minimum inhibitory conc.
# Description: as §1, §2, §3
# [3] = system: Proteus mirabilis MB 2830; settings: read-out: Minimum inhibitory conc.
# Description: as §1, §2, §3
# [4] = system: Pseudomonas aeruginosa MB 2835; settings: MB2835, Ps. aer., strain MB 2835, trypticase soy agar, 10⁵ cfu, 35°C, 20 hours, read-out: Minimum inhibitory conc.
# Description: as §1, §2, §3
# [5] = system: Pseudomonas aeruginosa MB 5160 (Norfloxacin-resistant strain); settings: 20 h, read-out: Minimum inhibitory conc.
# Description: as §1, §2, §3
# [6] = system: Streptococcus faecalis MB 2864; settings: Enterococcus faecalis, read-out: Minimum inhibitory conc.
# Description: as §1, §2, §3
# [7] = system: Staphylococcus aureus MB 4310; settings: read-out: Minimum inhibitory conc.
# Description: as §1, §2, §3
# Escherichia coli MB 2891 = settings: read-out: Minimum inhibitory conc.
# Description: as §1, §2, §3
# [8] = system: Klebsiella pneumoniae MB 4005; settings: read-out: Minimum inhibitory conc.
# Description: as §1, §2, §3
# Escherichia coli MB 5157 = settings: read-out: Minimum inhibitory conc.
# Description: as §1, §2, §3
# [9] = MB2865, St. aur., strain MB 2865, trypticase soy agar, 10⁵ cfu, 35°C, 20 hours
# [10] = MB2830, Pr. mir., strain MB 2830, trypticase soy agar, 10⁵ cfu, 35°C, 20 hours
# [11] = MB2864, Str. fae., strain MB 2864, trypticase soy agar, 10⁵ cfu, 35°C, 20 hours
# [12] = MB4310, St. aur., strain MB 4310, trypticase soy agar, 10⁵ cfu, 35°C, 20 hours
# [13] = MB2891, E. coli, strain MB 2891, trypticase soy agar, 10⁵ cfu, 35°C, 20 hours
# [14] = MB4005, K. pneu., strain MB 4005, trypticase soy agar, 10⁵ cfu, 35°C, 20 hours
# [15] = MB5157, E. coli, strain MB 5157, trypticase soy agar, 10⁵ cfu, 35°C, 20 hours
SMILES,MIC [1],"MIC [2, 9]","MIC [3, 10]",MIC [4],MIC [5],"MIC [6, 11]","MIC [7, 12]",MIC (Escherichia coli MB 2891; [13]),"MIC [8, 14]",MIC (Escherichia coli MB 5157; [15]),"MIC ([3]; MB2830, 20 h)","MIC (Escherichia coli MB 2891; MB2891, 20 h)","MIC ([8]; MB4005, 20 h)","MIC (Escherichia coli MB 5157; MB5157, 20 h)","MIC ([2]; MB2865, 20 h)","MIC ([6]; MB2864, 20 h)","MIC ([7]; MB4310, 20 h)"
CN(C)c1ccc(-c2[nH]c(=O)c(C(=O)O)cc2-c2ccc(O)cc2)cc1 [Example 30],> 128 µg/mL,0.25 µg/mL,8 µg/mL,> 128 µg/mL,> 128 µg/mL,0.5 µg/mL,0.25 µg/mL,0.25 µg/mL,< 0.25 µg/mL,0.25 µg/mL,,,,,,,
"COc1ccc(-c2[nH]c(=O)c(C(=O)O)cc2-c2ccc(F)cc2)cc1 [Example 32, 5-(4-Fluorophenyl)-1,2-dihydro-6-(4-methoxyphenyl)-2-oxo-3-pyridinecarboxylic acid]",> 128 µg/mL,2 µg/mL,32 µg/mL,> 128 µg/mL,> 128 µg/mL,16 µg/mL,1 µg/mL,16 µg/mL,1 µg/mL,4 µg/mL,,,,,,,
CN(C)c1ccc(-c2[nH]c(=O)c(C(=O)O)cc2-c2ccc(F)cc2)cc1 [Example 33],> 128 µg/mL,2 µg/mL,128 µg/mL,> 128 µg/mL,> 128 µg/mL,128 µg/mL,2 µg/mL,16 µg/mL,8 µg/mL,8 µg/mL,,,,,,,
CN(C)c1ccc(-c2[nH]c(=O)c(C(=O)O)cc2-c2ccc(O)cc2)cc1F [Example 34],> 128 µg/mL,2 µg/mL,,> 128 µg/mL,> 128 µg/mL,16 µg/mL,8 µg/mL,4 µg/mL,16 µg/mL,16 µg/mL,> 128 µg/mL,,,,,,
CN(C)c1ccc(-c2[nH]c(=O)c(C(=O)O)cc2-c2ccc(O)cc2)c(F)c1 [Example 35],> 128 µg/mL,0.5 µg/mL,32 µg/mL,> 128 µg/mL,> 128 µg/mL,4 µg/mL,1 µg/mL,1 µg/mL,1 µg/mL,1 µg/mL,,,,,,,
"CSc1ccc(-c2[nH]c(=O)c(C(=O)O)cc2-c2ccc(F)cc2)cc1 [Example 36, 5-(4-fluorophenyl)-1,2-dihydro-6-[4-(methylthio)phenyl]-2-oxo-3-pyridine carboxylic acid]",> 128 µg/mL,8 µg/mL,,> 128 µg/mL,> 128 µg/mL,64 µg/mL,8 µg/mL,64 µg/mL,16 µg/mL,16 µg/mL,> 128 µg/mL,,,,,,
O=C(O)c1cc(-c2ccc(F)cc2)c(-c2ccc(N3CCCCC3)cc2)[nH]c1=O [Example 42],> 128 µg/mL,1 µg/mL,,> 128 µg/mL,> 128 µg/mL,64 µg/mL,1 µg/mL,,,,> 128 µg/mL,> 128 µg/mL,> 128 µg/mL,> 128 µg/mL,,,
O=C(O)c1cc(-c2ccc(F)cc2)c(-c2ccc(N3CCOCC3)cc2)[nH]c1=O [Example 43],> 128 µg/mL,4 µg/mL,128 µg/mL,> 128 µg/mL,> 128 µg/mL,64 µg/mL,4 µg/mL,16 µg/mL,16 µg/mL,8 µg/mL,,,,,,,
CN1CCN(c2ccc(-c3[nH]c(=O)c(C(=O)O)cc3-c3ccc(F)cc3)cc2)CC1 [Example 44],> 128 µg/mL,32 µg/mL,,> 128 µg/mL,> 128 µg/mL,128 µg/mL,16 µg/mL,8 µg/mL,32 µg/mL,16 µg/mL,> 128 µg/mL,,,,,,
"CS(=O)(=O)c1ccc(-c2[nH]c(=O)c(C(=O)O)cc2-c2ccc(F)cc2)cc1 [Example 47, 5-(4-Fluorophenyl)-1,2-dihydro-6-[4-(methylsulfonyl)phenyl]-2-oxo-3-pyridinecarboxylic acid]",> 128 µg/mL,,,> 128 µg/mL,> 128 µg/mL,,,,,,> 128 µg/mL,> 128 µg/mL,> 128 µg/mL,> 128 µg/mL,> 128 µg/mL,> 128 µg/mL,> 128 µg/mL
C[S+]([O-])c1ccc(-c2[nH]c(=O)c(C(=O)O)cc2-c2ccc(F)cc2)cc1 (stereo not drawn) [Example 48],> 128 µg/mL,,,> 128 µg/mL,> 128 µg/mL,,,,,,> 128 µg/mL,> 128 µg/mL,> 128 µg/mL,> 128 µg/mL,> 128 µg/mL,> 128 µg/mL,> 128 µg/mL
C[N+](C)([O-])c1ccc(-c2[nH]c(=O)c(C(=O)O)cc2-c2ccc(F)cc2)cc1 [Example 49],> 128 µg/mL,1 µg/mL,64 µg/mL,> 128 µg/mL,> 128 µg/mL,16 µg/mL,0.5 µg/mL,32 µg/mL,8 µg/mL,4 µg/mL,,,,,,,
C[N+](C)([O-])c1ccc(-c2[nH]c(=O)c(C(=O)O)cc2-c2ccc(O)cc2)cc1 [Example 50],> 128 µg/mL,4 µg/mL,128 µg/mL,> 128 µg/mL,> 128 µg/mL,16 µg/mL,8 µg/mL,8 µg/mL,16 µg/mL,8 µg/mL,,,,,,,
"CN(C)c1ccc(-c2c(-c3ccc(O)cc3)cc(C(=O)O)c(=O)n2C)cc1 [Example 51, 6-[4-(Dimethylamino)phenyl]-1,2-dihydro-5-(4-hydroxyphenyl)-1-methyl-2-oxo-3-pyridinecarboxylic acid]",> 128 µg/mL,1 µg/mL,32 µg/mL,> 128 µg/mL,> 128 µg/mL,128 µg/mL,0.5 µg/mL,0.5 µg/mL,16 µg/mL,2 µg/mL,,,,,,,
CN(C)c1ccc(-c2c(-c3ccc(F)cc3)cc(C(=O)O)c(=O)n2C)cc1 [Example 52],> 128 µg/mL,2 µg/mL,,> 128 µg/mL,> 128 µg/mL,,2 µg/mL,2 µg/mL,64 µg/mL,4 µg/mL,> 128 µg/mL,,,,,> 128 µg/mL,
